Where two headings read alike, the source gives them in different places.
Assays:
BSA = biological target: T1, BSA (Bos taurus, UniProt P02769); set-up: Intact protein LC/MS covalent labelling, fragments in pools of five, 200 uM each, 4 °C; conditions: 24 h, 4 °C, pool of five; 200 µM; covalent
T1 construct: gene ALB

OTUB2 (OTUB2A) = biological target: T2, OTUB2 (OTUB2A) (Homo sapiens, UniProt Q96DC9); set-up: Intact protein LC/MS covalent labelling, fragments in pools of five, 200 uM each, 4 °C; conditions: 24 h, 4 °C, pool of five; 200 µM; covalent
T2 construct: full length residues 1-234, E. coli BL21(DE3)-R3, His tag removed by TEV, construct 27312 Da
T2 sequence (Q96DC9 1-234): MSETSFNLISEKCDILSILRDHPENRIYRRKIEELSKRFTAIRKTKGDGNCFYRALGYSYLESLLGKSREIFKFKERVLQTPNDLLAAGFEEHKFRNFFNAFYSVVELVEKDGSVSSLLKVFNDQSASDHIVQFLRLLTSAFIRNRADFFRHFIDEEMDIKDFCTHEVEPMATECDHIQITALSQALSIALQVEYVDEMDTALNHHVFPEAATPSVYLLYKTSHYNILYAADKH

NNMT (hNNMT) = biological target: T3, NNMT (hNNMT) (Homo sapiens, UniProt P40261); set-up: Intact protein LC/MS covalent labelling, fragments in pools of five, 200 uM each, 4 °C; conditions: 24 h, 4 °C, pool of five; 200 µM; covalent
T3 construct: wild type, N-terminal His6 tag kept (no cleavage described), E. coli, construct 31248 Da
T3 sequence (P40261 1-264): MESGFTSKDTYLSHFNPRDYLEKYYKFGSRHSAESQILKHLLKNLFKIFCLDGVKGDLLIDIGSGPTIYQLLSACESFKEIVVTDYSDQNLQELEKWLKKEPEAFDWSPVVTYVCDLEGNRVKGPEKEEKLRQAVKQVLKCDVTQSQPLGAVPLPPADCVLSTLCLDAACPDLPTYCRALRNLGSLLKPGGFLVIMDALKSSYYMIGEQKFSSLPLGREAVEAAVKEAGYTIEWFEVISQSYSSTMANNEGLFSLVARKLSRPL

PCAF = biological target: T4, PCAF (Homo sapiens, UniProt Q92831); set-up: Intact protein LC/MS covalent labelling, fragments in pools of five, 200 uM each, 4 °C; conditions: 24 h, 4 °C, pool of five; 200 µM; covalent
T4 construct: gene KAT2B
T4 sequence (Q92831 whole entry, the tested form may be a part): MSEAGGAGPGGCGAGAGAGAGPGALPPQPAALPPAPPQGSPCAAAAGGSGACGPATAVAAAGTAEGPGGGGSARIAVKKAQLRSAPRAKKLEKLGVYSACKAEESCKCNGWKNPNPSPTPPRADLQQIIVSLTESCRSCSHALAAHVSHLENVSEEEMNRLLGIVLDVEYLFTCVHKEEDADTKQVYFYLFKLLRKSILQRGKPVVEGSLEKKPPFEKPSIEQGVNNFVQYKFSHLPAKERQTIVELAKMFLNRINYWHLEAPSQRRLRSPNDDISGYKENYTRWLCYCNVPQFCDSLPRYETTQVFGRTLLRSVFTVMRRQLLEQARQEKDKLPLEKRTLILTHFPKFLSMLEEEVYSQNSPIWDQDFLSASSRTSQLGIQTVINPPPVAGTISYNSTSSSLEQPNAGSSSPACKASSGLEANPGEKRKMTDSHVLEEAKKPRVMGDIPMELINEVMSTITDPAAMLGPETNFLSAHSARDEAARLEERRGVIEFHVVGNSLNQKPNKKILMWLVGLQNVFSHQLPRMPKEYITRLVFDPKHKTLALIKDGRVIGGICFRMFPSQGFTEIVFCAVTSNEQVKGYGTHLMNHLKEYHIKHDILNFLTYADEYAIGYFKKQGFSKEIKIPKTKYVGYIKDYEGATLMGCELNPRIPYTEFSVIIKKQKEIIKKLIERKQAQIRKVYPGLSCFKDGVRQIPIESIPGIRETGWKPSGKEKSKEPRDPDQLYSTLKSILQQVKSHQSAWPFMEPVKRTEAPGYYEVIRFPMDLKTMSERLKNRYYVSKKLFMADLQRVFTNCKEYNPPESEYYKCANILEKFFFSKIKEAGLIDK

NUDT7 = biological target: T5, NUDT7 (Homo sapiens, UniProt P0C024); set-up: Intact protein LC/MS covalent labelling, fragments in pools of five, 200 uM each, 4 °C; conditions: 24 h, 4 °C, pool of five; 200 µM; covalent
T5 construct: residues 14-235, E. coli, pNIC28-Bsa4, N-terminal His6 tag removed by TEV, construct 26672 Da
T5 sequence (P0C024 14-235): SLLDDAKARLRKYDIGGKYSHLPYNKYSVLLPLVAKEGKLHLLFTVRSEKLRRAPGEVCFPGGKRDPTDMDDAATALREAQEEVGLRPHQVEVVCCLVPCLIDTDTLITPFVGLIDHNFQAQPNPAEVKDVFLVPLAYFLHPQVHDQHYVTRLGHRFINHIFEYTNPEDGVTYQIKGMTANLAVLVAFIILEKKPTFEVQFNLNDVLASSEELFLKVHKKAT

in vitro [1] = assay: in vitro; set-up: species or system CCD841, HEK293; conditions: human, hb2 cells, read-out: HB-2 Cells Viability (%)
in vitro [2] = assay: in vitro; set-up: species or system HB2, HEK293; conditions: human, ccd841 cells
in vitro [3] = assay: in vitro; set-up: species or system HB2, CCD841; conditions: human, hek293 cells

T1 sequence (P02769 whole entry, the tested form may be a part): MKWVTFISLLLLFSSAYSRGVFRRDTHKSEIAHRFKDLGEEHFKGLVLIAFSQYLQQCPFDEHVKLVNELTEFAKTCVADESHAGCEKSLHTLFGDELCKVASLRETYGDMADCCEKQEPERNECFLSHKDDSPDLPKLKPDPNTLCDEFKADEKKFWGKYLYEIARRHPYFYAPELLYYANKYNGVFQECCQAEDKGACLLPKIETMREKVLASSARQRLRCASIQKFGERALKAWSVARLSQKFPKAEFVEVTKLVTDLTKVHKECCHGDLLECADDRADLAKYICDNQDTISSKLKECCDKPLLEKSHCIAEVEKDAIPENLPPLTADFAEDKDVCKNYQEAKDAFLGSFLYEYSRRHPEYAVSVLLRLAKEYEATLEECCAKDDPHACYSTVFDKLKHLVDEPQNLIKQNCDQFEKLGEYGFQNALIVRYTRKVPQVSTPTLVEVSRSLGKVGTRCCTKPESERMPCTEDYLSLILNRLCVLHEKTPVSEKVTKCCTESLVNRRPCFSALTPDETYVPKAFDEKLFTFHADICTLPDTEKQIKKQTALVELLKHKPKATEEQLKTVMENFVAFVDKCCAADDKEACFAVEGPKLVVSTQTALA

BSA (BSA) | OTUB2 (OTUB2 (OTUB2A)) | NNMT (NNMT (hNNMT)) | PCAF (PCAF) | NUDT7 (NUDT7) | SMILES | viability at 48 h, 10 µM (in vitro [1]) [%] | viability at 48 h, 10 µM (in vitro [2]) [%] | viability at 48 h, 10 µM (in vitro [3]) [%]
0 | 0 | 0 | 0 | 0.11 | CN(Cc1ccccc1)C(=O)CCl [PCM-0102984] | 78.6 | 91.6 | 55.2
0 | 0 | 0 | 0 | 0 | C=CC(=O)N1CCCN(C(=O)c2cc(Cl)cn2C)CC1 [PCM-0103003] | 105 | 101 | 96.7
0 | 0.64 | 0 | 0 | 0 | Cc1cc(CNC(=O)CCl)cc(C)c1O [PCM-0102431] | 85.7 | 96.3 | 84.6
0 | 0.51 | 0 | 0 | 0 | O=C(CCl)Nc1ccccc1F [PCM-0102158] | 50 | 59 | 34.2
0 | 0 | 0 | 0 | 0 | C=CC(=O)Nc1cccc(C(F)(F)F)c1 [PCM-0102573] | 103 | 105 | 108
0 | 0.34 | 0.58 | 0 | 0.15 | CC(NC(=O)CCl)c1ccc(F)cc1F (stereo not shown) [PCM-0103035] | 77.6 | 78.2 | 66.4
0 | 0 | 0.19 | 0 | 0 | C=CC(=O)N1CCCc2cc(C(=O)O)ccc21 [PCM-0102421] | 96.3 | 109 | 87.2
0 | 0.63 | 0 | 0 | 0 | Cc1ccc(CNC(=O)CCl)cc1 [PCM-0102660] | 87.4 | 80.3 | 93.6
0 | 0.37 | 0 | 0 | 0.28 | O=C(CCl)Nc1cccc(Cl)c1 [PCM-0102198] | 9 | 41.1 | 1.8
0 | 0.3 | 0 | 0 | 0 | Cc1ccccc1CC(=O)NNC(=O)CCl [PCM-0102829] | 90.9 | 83.9 | 104
0 | 0 | 0.57 | 0 | 0.09 | Cc1ccc(NC(=O)NC(=O)CCl)cc1C [PCM-0102119] | 48.8 | 63.5 | 63.3
0 | 0 | 0 | 0 | 0 | C=CC(=O)NC1CCCN(c2cc(C)nn2C)C1=O (stereo not shown) [PCM-0102991] | 98.2 | 113 | 94.5
0 | 0.07 | 0.2 | 0 | 0.1 | Cl.O=C(CCl)N1CCN(c2ccc(F)cc2)CC1 [PCM-0102905] | 24.7 | 77 | 56.8
0 | 0 | 0 | 0 | 0 | C=CC(=O)N1CCC(CN2C(=O)CNC2=O)C1 (stereo not shown) [PCM-0102488] | 96.6 | 114 | 100

— publication PMC6556873, “Rapid Covalent-Probe Discovery by Electrophile-Fragment Screening” (Journal of the American Chemical Society, 2019)
